Laboratory results taken from PMC7529893, “Structural basis for substrate recognition and chemical inhibition of oncogenic MAGE ubiquitin ligases” (Nature Communications, 2020).

Target: T1, MAGE-A11:PCF11 interaction (GST-MAGE-A11 and FAM-PCF11_4) (Homo sapiens, UniProt P43364)
T1 construct: GST-MAGE-A11 MHD (human MAGE-A11 MHD amino acid 218-429); made in house; host or cells: E. coli BL21(DE3)
T1 sequence (P43364 218-429): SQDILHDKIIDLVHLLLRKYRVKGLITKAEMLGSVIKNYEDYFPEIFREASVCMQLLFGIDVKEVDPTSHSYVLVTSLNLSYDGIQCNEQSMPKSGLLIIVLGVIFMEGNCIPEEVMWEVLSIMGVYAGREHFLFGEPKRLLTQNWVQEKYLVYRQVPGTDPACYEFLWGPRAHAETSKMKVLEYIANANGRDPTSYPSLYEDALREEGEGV
Experiment: TR-FRET primary / single point screen at 15 µM
Type: binding
Conditions: single point TR-FRET screening of 797 quinoline compounds against MAGE-A11:PCF11
Procedure, shortened: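 Single-point screen at 15 µM final compound in 50 mM Tris pH 7.5, 20 mM MgCl2, 0.1 mg/ml BSA, 1 mM DTT, with 200 nM FAM-PCF11_4, 5 nM Tb-anti-GST and 5 nM GST-MAGE-A11. After 90 min at room temperature, the 520/490 nm TR-FRET ratio (340 nm excitation) gave %Inhibition against no-MAGE-A11 and DMSO controls.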

Structure (SMILES)	percent inhibition (TR-FRET)
Cc1cc(C)c(CN2CCC(Nc3ccnc4cc(Cl)ccc34)CC2)c(C)c1 [SJ000523084]	11.7451
Clc1ccc2c(NC3CCN(CC4CCCCC4)CC3)ccnc2c1 [SJ000523085]	15.4273
CCC(CC)CN1CCC(Nc2ccnc3cc(Cl)ccc23)CC1 [SJ000523086]	9.754
Clc1ccc2c(NC3CCN(Cc4ccc5c(c4)OCO5)CC3)ccnc2c1 [SJ000523087]	7.6432
CCCCCN1CCC(Nc2ccnc3cc(Cl)ccc23)CC1 [SJ000523088]	12.1652
Fc1ccc(CN2CCC(Nc3ccnc4cc(Cl)ccc34)CC2)cc1F [SJ000523089]	-1.958

The remaining lines, values ahead:

percent inhibition (TR-FRET)	Structure (SMILES)
23.7178	COc1ccc(CN2CCC(Nc3ccnc4cc(Cl)ccc34)CC2)cc1 [SJ000523090]
-0.9977	Fc1ccccc1CN1CCC(Nc2ccnc3cc(Cl)ccc23)CC1 [SJ000523091]
6.622	Fc1cccc(CN2CCC(Nc3ccnc4cc(Cl)ccc34)CC2)c1 [SJ000523092]
10.6575	Fc1ccc(CN2CCC(Nc3ccnc4cc(Cl)ccc34)CC2)cc1 [SJ000523093]
-2.0257	O=[N+]([O-])c1ccccc1CN1CCC(Nc2ccnc3cc(Cl)ccc23)CC1 [SJ000523094]
0.8927	O=[N+]([O-])c1cccc(CN2CCC(Nc3ccnc4cc(Cl)ccc34)CC2)c1 [SJ000523095]
-4.954	O=[N+]([O-])c1ccc(CN2CCC(Nc3ccnc4cc(Cl)ccc34)CC2)cc1 [SJ000523096]
8.596	COc1ccccc1CN1CCC(Nc2ccnc3cc(Cl)ccc23)CC1 [SJ000523097]
-2.194	O=C(O)c1ccccc1CN1CCC(Nc2ccnc3cc(Cl)ccc23)CC1 [SJ000523098]
-6.179	Clc1ccc2c(NC3CCN(Cc4cccc5ccccc45)CC3)ccnc2c1 [SJ000523099]
4.171	Clc1ccc2c(NC3CCN(Cc4ccc5ccccc5c4)CC3)ccnc2c1 [SJ000523100]
18.5377	Cc1cccc(CN2CCC(Nc3ccnc4cc(Cl)ccc34)CC2)c1 [SJ000523101]
13.0905	CN(C)c1ccc(CN2CCC(Nc3ccnc4cc(Cl)ccc34)CC2)cc1 [SJ000523102]
11.7451	COc1ccc(CN2CCC(Nc3ccnc4cc(Cl)ccc34)CC2)cc1OC [SJ000523103]
20.6486	Clc1ccc2c(NC3CCN(CCCc4ccccc4)CC3)ccnc2c1 [SJ000523104]
11.185	CCC(C)CN1CCC(Nc2ccnc3cc(Cl)ccc23)CC1 (centres unmarked) [SJ000523105]
18.6767	Cc1ccc(C)c(CN2CCC(Nc3ccnc4cc(Cl)ccc34)CC2)c1 [SJ000523106]
3.1492	COc1cccc(CN2CCC(Nc3ccnc4cc(Cl)ccc34)CC2)c1 [SJ000523107]
29.2961	CCCCCCN1CCC(Nc2ccnc3cc(Cl)ccc23)CC1 [SJ000523108]
28.0142	O=C(C[C@H]1CC[C@]2(CC1)OO[C@]1(O2)C2CC3CC(C2)CC1C3)NCCNc1ccnc2cc(Cl)ccc12 [SJ000578361]
18.3966	Clc1ccc2c(NCCNCC[C@H]3CC[C@]4(CC3)OO[C@]3(O4)C4CC5CC(C4)CC3C5)ccnc2c1 [SJ000578381]
25.1182	O=C(C[C@H]1CC[C@]2(CC1)OO[C@]1(O2)C2CC3CC(C2)CC1C3)NCCCCNc1ccnc2cc(Cl)ccc12 [SJ000578384]
4.364	Cc1cc(NC(=O)CN[C@H]2CCN(Cc3ccccc3)C2)c2ccccc2n1 [SJ000832405]
-1.278	Cc1cc(NC(=O)CN[C@H]2CCN(Cc3cccc(F)c3)C2)c2ccccc2n1 [SJ000832581]

Same assay, conditions: single point TR-FRET screening of quinoline compounds against MAGE-A11:PCF11; 15 µM

Structure (SMILES)	percent inhibition (TR-FRET)
Clc1ccc2c(NCCCNCc3ccccn3)ccnc2c1 [SJ000523050]	4.744
CSCCCNCCCNc1ccnc2cc(Cl)ccc12 [SJ000523051]	14.9659
Clc1ccc2c(NCCCNCc3ccsc3)ccnc2c1 [SJ000523052]	15.2459
CC(CCNCCCNc1ccnc2cc(Cl)ccc12)c1ccccc1 (centres unmarked) [SJ000523053]	19.0144
CCCCCNCCCNc1ccnc2cc(Cl)ccc12 [SJ000523057]	25.8183
Cc1c(CNCCCNc2ccnc3cc(Cl)ccc23)c(=O)n(-c2ccccc2)n1C [SJ000523058]	5.584
O=[N+]([O-])c1ccccc1-c1ccc(CNCCCNc2ccnc3cc(Cl)ccc23)o1 [SJ000523068]	21.6545
Clc1cccc(-c2ccc(CNCCCNc3ccnc4cc(Cl)ccc34)o2)c1 [SJ000523069]	33.5128
CCCN(CCCNc1ccnc2cc(C(F)(F)F)ccc12)Cc1ccc(F)cc1 [SJ000523070]	26.4363
CCCN(CCCNc1ccnc2cc(C(F)(F)F)ccc12)Cc1ccccc1[N+](=O)[O-] [SJ000523071]	-7.745
CCCN(CCCNc1ccnc2cc(C(F)(F)F)ccc12)Cc1ccccc1OC [SJ000523072]	32.6098
CCCN(CCCNc1ccnc2cc(C(F)(F)F)ccc12)Cc1ccccc1C(=O)O [SJ000523073]	16.8563
CCCN(CCCNc1ccnc2cc(C(F)(F)F)ccc12)Cc1cccc2ccccc12 [SJ000523074]	14.3161
CCCN(CCCNc1ccnc2cc(C(F)(F)F)ccc12)Cc1ccc2ccccc2c1 [SJ000523075]	11.3882
CCCN(CCCNc1ccnc2cc(C(F)(F)F)ccc12)Cc1cccc(C)c1 [SJ000523076]	20.1719
CCCN(CCCNc1ccnc2cc(C(F)(F)F)ccc12)Cc1ccc(N(C)C)cc1 [SJ000523077]	23.7127
CCCN(CCCNc1ccnc2cc(C(F)(F)F)ccc12)Cc1ccc(Cl)cc1Cl [SJ000523078]	3.83
CCCN(CCCNc1ccnc2cc(C(F)(F)F)ccc12)Cc1ccc(OC)c(OC)c1 [SJ000523079]	14.6566
CCCN(CCCNc1ccnc2cc(C(F)(F)F)ccc12)CCCc1ccccc1 [SJ000523080]	28.0024
CCCN(CCCNc1ccnc2cc(C(F)(F)F)ccc12)CC(C)CC (centres unmarked) [SJ000523081]	22.2827
CCCN(CCCNc1ccnc2cc(C(F)(F)F)ccc12)Cc1cc(C)ccc1C [SJ000523082]	21.738
CCCCCCN(CCC)CCCNc1ccnc2cc(C(F)(F)F)ccc12 [SJ000523083]	34.9477

The next lines start with the values.

percent inhibition (TR-FRET)	Structure (SMILES)
-35.9356	CCCN(CCCNc1c2ccc(Cl)cc2nc2ccc(OC)cc12)CC1CCOC1 (centres unmarked) [SJ000575149]
-21.3723	CCCN(CCCNc1c2ccc(Cl)cc2nc2ccc(OC)cc12)CC(C)C [SJ000575150]
-37.4059	CCCN(CCCCCC(=O)OC)CCCNc1c2ccc(Cl)cc2nc2ccc(OC)cc12 [SJ000575151]
-23.4028	CCCN(CCCNc1c2ccc(Cl)cc2nc2ccc(OC)cc12)Cc1cccnc1 [SJ000575152]
7.1241	CCCN(CCCNc1ccnc2cc(C(F)(F)F)ccc12)Cc1nccn1C [SJ000575170]
32.8899	CCCN(CCCNc1ccnc2cc(C(F)(F)F)ccc12)Cc1ccc2[nH]ccc2c1 [SJ000575171]
5.164	CCCN(CCCNc1ccnc2cc(C(F)(F)F)ccc12)Cc1scnc1C [SJ000575179]
5.164	CCCN(CCCNc1ccnc2cc(C(F)(F)F)ccc12)Cc1cccnc1Br [SJ000575180]
9.345	CCCN(CCCNc1ccnc2cc(C(F)(F)F)ccc12)Cc1ncc[nH]1 [SJ000575181]
15.6779	CCCN(CCCNc1ccnc2cc(C(F)(F)F)ccc12)Cc1cnn(C)c1 [SJ000575182]
8.665	CCCN(CCCNc1ccnc2cc(C(F)(F)F)ccc12)Cc1nccs1 [SJ000575189]
1.787	CCCN(CCCNc1ccnc2cc(C(F)(F)F)ccc12)CC1CCOC1 (centres unmarked) [SJ000575190]
5.6	CCCN(CCCCCC(=O)OC)CCCNc1ccnc2cc(C(F)(F)F)ccc12 [SJ000575191]
52.9917	Clc1ccc2c(NCCCNCc3ccc[nH]3)ccnc2c1 [SJ000575192]
15.3375	Clc1ccc2c(NCCCNCc3ccc(Br)s3)ccnc2c1 [SJ000575193]
28.4789	O=C(C[C@H]1CC[C@]2(CC1)OO[C@]1(O2)C2CC3CC(C2)CC1C3)NCCCNc1ccnc2cc(Cl)ccc12 [SJ000578380]
